Source: publication PMC6259833, “Antioxidant Bibenzyl Derivatives from Notholaena nivea Desv” (Molecules, 2011)
“Also recorded” adds a separate entry of the source.

Columns and labels:
[1] = TEAC free radical scavenging assay (ABTS radical cation); conditions: for TEAC: Trolox concentration with inhibition equivalent to a 1 mM solution of the compound, ABTS+., 734 nm, mean ± SD, triplicate
Method: The TEAC value is based on the ability of the antioxidant to scavenge the ABTS^+.. ABTS^+. cation radical was produced by the reaction between ABTS (7 mM) in water and potassium persulfate (2.45 mM), kept in the dark at room temperature for 12 hours. ABTS^+. is a blue-green cromogen with a characteristic absorption at 734 nm. The ABTS^+. solution was diluted with PBS, pH 7.4, to an absorbance of 0.70 at 734 nm and equilibrated at 30 °C.
Samples were diluted with methanol to have 0.3 mM, 0.5 mM, 1 mM, 1.5 mM, 2 mM solutions. The reaction was enhanced by the addition of diluted ABTS (1 mL) to 10 µL of each solution of sample or Trolox (standard), or […] of methanol (blank). The determination was repeated three times for each sample solution. The percentage inhibition of absorbance at 734 nm was calculated for each concentration in function of the blank’s absorbance. The percentage inhibition was plotted as a function of compound or standard concentration. The antioxidant activities of compounds 1-6 are expressed as TEAC, Trolox equivalent antioxidant activity. TEAC value is defined as the concentration of standard Trolox solution with equivalent percentage inhibition to a 1 mM concentration solution of the compound after investigation.

[2] = Coupled oxidation of β-carotene and linoleic acid (linoleic acid autoxidation assay); conditions: 15 µg/mL; for antioxidant activity in β-carotene/linoleic acid model (in words): compared with BHT standard; for Linoleic acid autoxidation inhibition (AA), 1 h: t = 60 min; for Linoleic acid autoxidation inhibition (AA), 1 h / Linoleic acid autoxidation inhibition (AA), 2 h: β-carotene bleaching, 50 °C; for Linoleic acid autoxidation inhibition (AA), 2 h: t = 120 min
Method: Heat-induced oxidation of an aqueous emulsion system of β-carotene and linoleic acid was measured by the method described by Pratt (1992). A quantity of linoleic acid (20 mg) and Tween 20 (200 mg) were placed in a flask, and a solution of β-carotene (2 mg) in CHCl3 (10 mL) was added. After removal of CHCl3, oxygenated distilled water (50 mL) was added. Aliquots of each compound (200 µL), dissolved in ethanol to a 15 µg/mL solution, were added to each flask with shaking. Samples without test compounds were used as blanks and sample with 2,6 di-tert-butyl-4-methylphenol (BHT) was used as a control substance. Samples were subjected to the oxidation, by placing them in an oven at 50 °C for 3 hours. The absorbance was red at 470 nm at regular intervals to monitor the rate of bleaching of ß-carotene. The antioxidant activities was expressed as AA, calculated with the equation Inhibitory ratio (AA) = 100 [1−A0−At]/ A00−A0t; where A0 was the absorbance at the beginning of the incubation, with compound; At was the absorbance at the time t, with compound; A00 was the absorbance at beginning of the incubation, without compound; A0t the absorbance at the time t, without compound. Each experiment was performed in triplicate.

[3] = Superoxide anion enzymatic generation assay (xanthine/xanthine oxidase, NBT reduction); type: biochemical; conditions: xanthine/XOD system, 560 nm, mean ± SD, read-out: Superoxide anion scavenging activity IC50
Method: Superoxide anion was generated in an enzymatic system by preparing a mixture of xanthine and xanthine oxidase. The reaction mixture included 0.1 mM EDTA, 50 µg/mL bovine serum albumine (BSA), 25 µM nitroblue tetrazolium, 0.1 mM xanthine and 3.3 × 10^−3 units xanthine oxidase (XOD) in 40 mM sodium carbonate buffer (pH 10.2) in a final volume of 3 mL. After incubation at 25 °C with increasing concentrations of samples, the absorbance of formazan produced was determined at 560 nm.
The inhibitory effect of samples on the generation of superoxide anion were estimated by the equation: Inhibitory ratio = (A0−A1) × 100/ A0; where A0 absorbance with no addition of sample and A1 absorbance with addition of sample. Inhibitory ratio for each sample was plotted as a function of the concentration, then was calculated the IC50 value, with the statistical method of linear regression.

[4] = target: T1, xanthine oxidase (XOD) (Bos taurus, UniProt P80457); experiment: Xanthine oxidase inhibition assay (uric acid formation); type: biochemical; conditions: for IC50: uric acid from xanthine, 295 nm, mean ± SD
T1 construct: purchased Sigma Aldrich (Gillingam, Dorset, U.K.)
T1 sequence (P80457 2-1332 limits assumed): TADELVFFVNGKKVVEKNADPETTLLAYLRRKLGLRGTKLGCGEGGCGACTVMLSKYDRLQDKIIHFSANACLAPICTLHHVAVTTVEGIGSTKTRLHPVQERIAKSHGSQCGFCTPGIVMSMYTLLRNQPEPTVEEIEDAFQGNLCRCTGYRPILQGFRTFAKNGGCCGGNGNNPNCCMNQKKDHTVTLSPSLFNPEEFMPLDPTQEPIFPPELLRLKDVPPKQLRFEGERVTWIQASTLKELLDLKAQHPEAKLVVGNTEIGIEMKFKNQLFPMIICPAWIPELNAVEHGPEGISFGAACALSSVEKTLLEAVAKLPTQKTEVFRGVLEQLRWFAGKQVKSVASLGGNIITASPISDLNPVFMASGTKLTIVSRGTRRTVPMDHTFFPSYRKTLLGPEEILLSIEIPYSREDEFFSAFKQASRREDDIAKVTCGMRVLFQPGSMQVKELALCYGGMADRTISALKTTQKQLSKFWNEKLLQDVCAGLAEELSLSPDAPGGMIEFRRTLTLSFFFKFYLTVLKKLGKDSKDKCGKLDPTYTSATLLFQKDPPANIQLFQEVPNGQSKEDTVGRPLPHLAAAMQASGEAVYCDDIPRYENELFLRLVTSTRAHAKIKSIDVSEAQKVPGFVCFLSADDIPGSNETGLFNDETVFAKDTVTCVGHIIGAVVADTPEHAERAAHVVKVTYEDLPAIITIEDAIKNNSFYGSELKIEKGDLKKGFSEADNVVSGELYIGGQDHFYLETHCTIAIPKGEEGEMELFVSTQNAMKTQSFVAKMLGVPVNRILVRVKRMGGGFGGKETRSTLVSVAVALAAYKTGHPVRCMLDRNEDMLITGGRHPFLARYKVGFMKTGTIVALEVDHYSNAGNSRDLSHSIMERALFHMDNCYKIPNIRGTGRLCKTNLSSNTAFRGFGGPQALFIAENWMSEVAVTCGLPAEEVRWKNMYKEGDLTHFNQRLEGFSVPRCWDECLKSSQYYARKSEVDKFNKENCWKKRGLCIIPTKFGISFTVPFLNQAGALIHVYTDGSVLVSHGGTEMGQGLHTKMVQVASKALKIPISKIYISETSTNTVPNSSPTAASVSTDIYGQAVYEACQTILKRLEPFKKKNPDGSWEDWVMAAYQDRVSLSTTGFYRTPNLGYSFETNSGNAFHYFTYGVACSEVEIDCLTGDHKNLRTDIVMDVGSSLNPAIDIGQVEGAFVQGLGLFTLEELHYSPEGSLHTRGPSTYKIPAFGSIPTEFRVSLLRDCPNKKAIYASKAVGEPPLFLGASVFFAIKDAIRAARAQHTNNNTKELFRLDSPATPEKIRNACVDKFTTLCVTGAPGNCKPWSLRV
Method: Xanthine oxidase inhibition activity was evaluated by the spectrophotometric measurement of the formation of uric acid by xanthine. A 100 µM solution of xanthine in 0.1 M phosphate buffer pH 7.8 with 0.04 units/mL of xanthine oxidase was incubated for 10 min at room temperature and read at 295 nm against a blank sample. Various concentrations of testing compounds were added to samples before the enzyme has been instilled and their effect on the generation of uric acid was used to calculate regression lines and IC50 values.

[5] = system: Caco-2 cells; experiment: H2O2-induced cytotoxicity in differentiated Caco-2 cells, neutral red assay; type: cell-based, human; conditions: for viability at 250 µM: compound 250 μmol/L; for protection against H2O2-induced toxicity (in words): compound 250 µmol/L, pretreatment before 10 mmol/L H2O2
Method: The Caco-2 cells strain was obtained from Prof. A. Leone research group (Dipartimento di Scienze Farmaceutiche, Sezione Biologica, Università degli Studi di Salerno, Fisciano, Italy) and used between passages 75 to 90. The cells were routinely maintained in DMEM, containing 200 mL/L FCS, 10 mL/L of 100× nonessential aminoacids, 2 mmol/L L-glutamine, 5 × 10^4 IU/L penicillin, 50 mg/L streptomycin at 37 °C in a 5% CO2 atmosphere at 90-100% relative humidity. Cell were grown in 10-cm petri dishes. For experiments, cells were seeded at a density of 90,000 cells/cm^2 in a Transwell insert, and the medium (0.1 mL in the insert and 0.8 mL in the well) was changed every 48 h. Fourteen to sixteen days after confluence, the integrity of the monolayer of differentiated cells was monitored according to the method of Hildago et al..
An iron-free medium (EMEM) was used for the oxidative stress induction experiments. The oxidative stress was induced in the apical compartment of the transwell insert by addition of H2O2. After 20 h of incubation, several oxidative stress markers were measured. To assay the capacity of these compounds to protect Caco-2 cells from ROM-mediated oxidative injury, cells were preincubated for 4 h with compounds, which had been added to the apical side of monolayer. After the end of preincubation time, the medium was changed before the addition of the of the oxidative stress-inducing agents.
We assessed the cytotoxicity of ROM on Caco-2 by the viability test of neutral red uptake, performed according to the procedure of Fautz et al.. After oxidative stress induction the medium in the insert was removed and replaced with 0.1 mL of fresh medium containing […] neutral red. At the end of 3 h of incubation, the medium was removed and cells were washed twice with PBS; finally the incorporated neutral red was released from cells by incubation for 15 min at room temperature in the presence of 1 mL of cell lysis buffer containing acetic acid (1%, v/v) and ethanol (50% v/v). To measure the dye taken up, the cell lysis products were centrifuged and supernatants spectrophotometrically measured at 540 nm.

[6] = Homo sapiens, Caco-2, 4 h preincubation, then 10 mmol/L H2O2 for 20 h, neutral red, read-out: cell viability

SMILES	IC50 [3] [µM]	activity as direct inhibitor of xanthine oxidase (in words) [4]	IC50 [4] [µM]	TEAC [1] [mM]	antioxidant activity in β-carotene/linoleic acid model (in words) [2]	Linoleic acid autoxidation inhibition (AA), 1 h [2] [%]	Linoleic acid autoxidation inhibition (AA), 2 h [2] [%]	loss of cell viability ([5]; 20 h of treatment with 10 mmol/L H2O2)	cell viability ([5]; H2O2 10 mmol/L alone, 20 h, neutral red) [%]	radical scavenging activity in ABTS/TEAC test (in words) [1]	viability at 125 µM ([5]; Homo sapiens, Caco-2, compound 125 μmol/L, 4 h preincubation, then 10 mmol/L H2O2 for 20 h, neutral red, read-out: cell viability) [%]	viability at 250 µM [5, 6] [%]	protection against H2O2-induced toxicity (in words) [5]	viability at 500 µM ([5]; Homo sapiens, Caco-2, compound 500 μmol/L, 4 h preincubation, then 10 mmol/L H2O2 for 20 h, neutral red, read-out: cell viability) [%]	protection against H2O2-induced alterations (in words) ([5]; compound 500 µmol/L preincubation)
COc1cc(CCc2ccc(O)cc2)cc(Oc2ccc(CCc3cc(OC)cc(O)c3C(=O)O)cc2)c1 [Compound 3, 12-O-[3’-(5’-methoxy-12’-hydroxy)-bibenzyl]-5-hydroxy-3-methoxybibenzyl-6-carboxylic acid]	78.2 ± 1.15	no activity	> 100	1.22 ± 0.02	no activity	0	0								
OO [Compound H2O2, hydrogen peroxide, reference compound]								about 25%	75						
COc1cc(O)c(C(=O)O)c(CCc2ccc(O)cc2)c1 [Compound 1, 5,12-dihydroxy-3-methoxy-dibenzyl-6-carboxylic acid]	96.93 ± 0.42	no activity	> 100	1.98 ± 0.05	highest activity after 1h; also recorded: moderate activity	32.60	11.70			most active		80	inactive	88	prevented
O=c1c(O)c(-c2ccc(O)c(O)c2)oc2cc(O)cc(O)c12 [Quercetin, quercetin, reference compound]				2.91 ± 0.02											
COc1cc(CCc2ccc(O)cc2)c(C(=O)O)c(OC(C)=O)c1 [Compound 2, 5-acetyloxy-12-hydroxy-3-methoxybibenzyl-6-carboxylic acid]	81.11 ± 0.68	moderate activity	71.39 ± 0.45	1.38 ± 0.01	moderate activity	28.51	19.16								
Oc1ccc(CCc2cc(O)cc(O)c2)cc1 [Dihydroresveratrol, reference compound]	60.9 ± 1.12		> 100	2.3 ± 0.07	lower activity	16.11	20.12								
Cc1cc(C(C)(C)C)c(O)c(C(C)(C)C)c1 [BHT, 2,6 di-tert-butyl-4-methylphenol, reference compound]						60.00	51.07								

More lines, main results first:

IC50 [3] [µM]	activity as direct inhibitor of xanthine oxidase (in words) [4]	IC50 [4] [µM]	SMILES	TEAC [1] [mM]	antioxidant activity in β-carotene/linoleic acid model (in words) [2]	Linoleic acid autoxidation inhibition (AA), 1 h [2] [%]	Linoleic acid autoxidation inhibition (AA), 2 h [2] [%]	loss of cell viability ([5]; 20 h of treatment with 10 mmol/L H2O2)	cell viability ([5]; H2O2 10 mmol/L alone, 20 h, neutral red) [%]	radical scavenging activity in ABTS/TEAC test (in words) [1]	viability at 125 µM ([5]; Homo sapiens, Caco-2, compound 125 μmol/L, 4 h preincubation, then 10 mmol/L H2O2 for 20 h, neutral red, read-out: cell viability) [%]	viability at 250 µM [5, 6] [%]	protection against H2O2-induced toxicity (in words) [5]	viability at 500 µM ([5]; Homo sapiens, Caco-2, compound 500 μmol/L, 4 h preincubation, then 10 mmol/L H2O2 for 20 h, neutral red, read-out: cell viability) [%]	protection against H2O2-induced alterations (in words) ([5]; compound 500 µmol/L preincubation)
58.4 ± 1.18	moderate activity	64 ± 2.13	COc1ccc(CCc2cc(OC)cc(O)c2C(=O)O)cc1 [Compound 5, 5-hydroxy-3,12-dimethoxy-6-carboxybibenzyl]	1.21 ± 0.01	moderate activity	26.56	19.72								
83.3 ± 1.06	no activity	> 100	COc1cc(O)cc(CCc2ccc(O)cc2)c1 [Compound 6, 3,12-dihydroxy-5-methoxybibenzyl]	2.55 ± 0.02	moderate activity	29.35	7.31			most active compound	90	98	no decrease in cell viability; also recorded: prevent H2O2-induced cytotoxicity; also recorded: prevented		
81.3 ± 2.01	no activity	> 100	COc1cc(CCc2ccc(Oc3cc(CCc4ccc(Oc5cc(CCc6ccc(O)cc6)c(C(=O)O)c(OC)c5)cc4)c(C(=O)O)c(OC)c3)cc2)c(C(=O)O)c(OC)c1 [Compound 4, 3-O-{12’-[12’’-O-(3’’,5’’-dimethoxy-6’’-carboxybibenzyl)]-5’-methoxy-6’-carboxybibenzyl}-12-hydroxy-5-methoxybibenzyl-6-carboxylic acid]	1.5 ± 0.03	no activity	0	0								
